Measured values from article PMC11465873, “Functional Properties and Components of Koenigia alpina Extract” (Skin Research and Technology, 2024).
In brackets after ≈: the same amount, converted by molar mass.

How the values were obtained:
elastase = molecular target: T1, elastase; assay: absorbance at […] nm, nitroanilide release; format: biochemical; conditions: N-(methoxysuccinyl)-Ala-Ala-Pro-Val-4-nitroanilide substrate; 0.2 M Tris-HCl; 30 min; positive control
T1 construct: gene CELA1

collagenase = molecular target: T2, collagenase; assay: modified ninhydrin assay, absorbance at […] nm; format: biochemical; conditions: collagen substrate; 5 h at 37°C; calcium chloride; positive control
T2 construct: gene colG

Which IC50 (elastase) does the source give for `O=C(O[C@@H]1Cc2c(O)cc(O)cc2O[C@@H]1c1cc(O)c(O)c(O)c1)c1cc(O)c(O)c(O)c1` [Epigallocatechin gallate] here?
Its IC50 is 2620 mg/L (≈ 5720 µM).

What about the IC50 (collagenase) of the same compound?
Its IC50 is 40 mg/L (≈ 87.3 µM).
